Laboratory results as given in patent US6015878A, “Antitumor agents isolated from intestinal mucosa, a method for their isolation and their application” (Alexandrov, Christo Alexandrov, priority 1995, dated 2000).
Ends that are not written are not given here.

Columns and labels:
Format in all cases: in vivo
intestines [1] = assay: Enterocytic cellularity in intestines of treated mice (morphogenic effect); conditions: for Cellularity: 7 hours after treatment of mice, in comparison with control animals not treated with IEGs
Method: (§1) Laboratory experiments were carried out to accomplish the third object concerning the effect of preparations on biosynthetic processes which was assessed by the incorporation of H^3 -thymidine (DNA-synthesis) and C^14 -uridine (RNA synthesis) in various regions of the intestines of the mice tested. The preparation's morphogenic effect was assessed by the enterocytic cellularity and DNA concentration in the same regions.
(§2) Each fraction obtained in purifying IEG (see Object 1) was tested on mice. 3 mg of the peptide content of the fraction was administered intraperitoneally simultaneously with the testing reagent (isotope); the animals were then killed and investigated 7 hours afterwards. […] Both IEGs have a suppressive effect on DNA synthesis especially in the lower regions of intestines: IEG1 by 45%, IEG2 --by 48%. […] In this way it switches on the chain of molecular mechanisms by which it acts on the smooth muscle motility.

intestines [2] = assay: DNA concentration in intestines of treated mice (morphogenic effect); conditions: 7 hours after treatment of mice, in comparison with control animals not treated with IEGs
Method: as §1, §2

intestines [3] = assay: Incorporation of C^14-uridine (RNA synthesis) in intestines of treated mice; conditions: 7 hours after treatment of mice, in comparison with control animals not treated with IEGs
Method: as §1, §2

intestines [4] = assay: Incorporation of H^3-thymidine (DNA synthesis) in intestines of treated mice; conditions: for Incorporation H^3-thymidine: 7 hours after treatment of mice, in comparison with control animals not treated with IEGs
Method: as §1, §2

[5] = Middle section of the intestines

In the case of “Arg-Arg-Asp-Asp-His-Arg-NH2 (RRDDHR-NH2) [IEG2, ID; NO]”, the Cellularity (intestines [1]; Duodenum) is reported as 88%, the Cellularity (intestines [1]; Ileum) is reported as 85% and the Cellularity (intestines [1]; Jejunum) is reported as 75%. The Cellularity (intestines [1]; [5]) was 83%, the “Average reduction in enterocyte number” value (intestines [1]; mice, 3 mg peptide content intraperitoneally, 7 hours) was 20% and the DNA concentration (intestines [2]; Duodenum) was 68%. The DNA concentration (intestines [2]; Ileum) was 77%, the DNA concentration (intestines [2]; Jejunum) was 97% and the DNA concentration (intestines [2]; [5]) was 62%. The “Incorporation C^14-uridine” value (intestines [3]; Duodenum) was 78%, the “Incorporation C^14-uridine” value (intestines [3]; Ileum) was 74% and the “Incorporation C^14-uridine” value (intestines [3]; Jejunum) was 78%. For the same substance, the “Incorporation C^14-uridine” value (intestines [3]; [5]) was 74%, the “Incorporation H^3-thymidine” value (intestines [4]; Duodenum) was 77% and the “Incorporation H^3-thymidine” value (intestines [4]; Ileum) was 55%. The “Incorporation H^3-thymidine” value (intestines [4]; Jejunum) was 88%, the “Incorporation H^3-thymidine” value (intestines [4]; [5]) was 48% and the “suppressive effect on DNA synthesis” value (intestines [4]; lower regions of intestines, mice, 3 mg intraperitoneally, 7 hours) was 48%.
